Test results as given in PubChem BioAssay (NCI).
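Growth conditions: 96-well plates. Treatment: test compound, 48 hours, 5 concentrations. Analysis: linear interpolation between bracketing concentrations; unreached endpoints set to highest concentration. TGI denotes the concentration required for complete inhibition of growth.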

Legend:
Assay in all cases: DTP human tumour cell line panel, 48 h
NCI-H23 lung = test system: NCI-H23 lung
HL-60(TB) leukemia = test system: HL-60(TB) leukemia
HCT-116 colon = test system: HCT-116 colon
CCRF-CEM leukemia = test system: CCRF-CEM leukemia
SN12C renal = test system: SN12C renal
NCI-H460 lung = test system: NCI-H460 lung
SK-MEL-2 melanoma = test system: SK-MEL-2 melanoma
SK-OV-3 ovarian = test system: SK-OV-3 ovarian
OVCAR-8 ovarian = test system: OVCAR-8 ovarian
SNB-75 CNS = test system: SNB-75 CNS
SF-295 CNS = test system: SF-295 CNS
A498 renal = test system: A498 renal
PC-3 prostate = test system: PC-3 prostate
CAKI-1 renal = test system: CAKI-1 renal
UACC-257 melanoma = test system: UACC-257 melanoma
U251 CNS = test system: U251 CNS
DU-145 prostate = test system: DU-145 prostate
K-562 leukemia = test system: K-562 leukemia
HT29 colon = test system: HT29 colon
T-47D breast = test system: T-47D breast
SK-MEL-28 melanoma = test system: SK-MEL-28 melanoma
SNB-19 CNS = test system: SNB-19 CNS
MDA-N = test system: MDA-N
SK-MEL-5 melanoma = test system: SK-MEL-5 melanoma
MCF7 breast = test system: MCF7 breast
ACHN renal = test system: ACHN renal
UACC-62 melanoma = test system: UACC-62 melanoma
BT-549 breast = test system: BT-549 breast
OVCAR-3 ovarian = test system: OVCAR-3 ovarian
TK-10 renal = test system: TK-10 renal
M14 melanoma = test system: M14 melanoma
MALME-3M melanoma = test system: MALME-3M melanoma
HCC-2998 colon = test system: HCC-2998 colon
HOP-62 NSCLC = test system: HOP-62 NSCLC
COLO 205 colon = test system: COLO 205 colon
KM12 colon = test system: KM12 colon
SF-268 CNS = test system: SF-268 CNS
IGROV1 ovarian = test system: IGROV1 ovarian
A549 NSCLC = test system: A549 NSCLC
MDA-MB-435 = test system: MDA-MB-435
MDA-MB-231 breast = test system: MDA-MB-231 breast
HS 578T breast = test system: HS 578T breast
SF-539 CNS = test system: SF-539 CNS
HOP-92 NSCLC = test system: HOP-92 NSCLC
SR leukemia = test system: SR leukemia
RPMI-8226 leukemia = test system: RPMI-8226 leukemia
HCT-15 colon = test system: HCT-15 colon
UO-31 renal = test system: UO-31 renal
LOX IMVI melanoma = test system: LOX IMVI melanoma
NCI-H226 lung = test system: NCI-H226 lung
SW-620 colon = test system: SW-620 colon
MOLT-4 leukemia = test system: MOLT-4 leukemia
786-0 renal = test system: 786-0 renal
OVCAR-4 ovarian = test system: OVCAR-4 ovarian
NCI-H522 lung = test system: NCI-H522 lung
NCI/ADR-RES ovarian = test system: NCI/ADR-RES ovarian
RXF 393 renal = test system: RXF 393 renal
OVCAR-5 ovarian = test system: OVCAR-5 ovarian
EKVX NSCLC = test system: EKVX NSCLC
M19-MEL melanoma = test system: M19-MEL melanoma
XF 498 CNS = test system: XF 498 CNS
LXFL 529 NSCLC = test system: LXFL 529 NSCLC
DMS 114 small cell lung = test system: DMS 114 small cell lung
DLD-1 colon = test system: DLD-1 colon
KM20L2 colon = test system: KM20L2 colon
DMS 273 small cell lung = test system: DMS 273 small cell lung
HOP-18 NSCLC = test system: HOP-18 NSCLC
SNB-78 CNS = test system: SNB-78 CNS

## O=[N+]([O-])c1ccc2c(c1)C1=NN(c3ccccc3)C(c3ccccc3Br)C1CCC2 (stereo not drawn)
NCI-H23 lung
  TGI: > 50 µM
HL-60(TB) leukemia
  TGI: 24.1 µM
HCT-116 colon
  TGI: > 50 µM
CCRF-CEM leukemia
  TGI: 27.4 µM
SN12C renal
  TGI: > 50 µM
NCI-H460 lung
  TGI: > 50 µM
SK-MEL-2 melanoma
  TGI: > 50 µM
SK-OV-3 ovarian
  TGI: > 50 µM
OVCAR-8 ovarian
  TGI: > 50 µM
SNB-75 CNS
  TGI: > 50 µM
SF-295 CNS
  TGI: > 50 µM
A498 renal
  TGI: > 50 µM
PC-3 prostate
  TGI: > 50 µM
CAKI-1 renal
  TGI: > 50 µM
UACC-257 melanoma
  TGI: > 50 µM
U251 CNS
  TGI: > 50 µM
DU-145 prostate
  TGI: > 50 µM
K-562 leukemia
  TGI: > 50 µM
HT29 colon
  TGI: > 50 µM
T-47D breast
  TGI: 47.3 µM
SK-MEL-28 melanoma
  TGI: > 50 µM
SNB-19 CNS
  TGI: > 50 µM
MDA-N
  TGI: > 50 µM
SK-MEL-5 melanoma
  TGI: > 50 µM
MCF7 breast
  TGI: > 50 µM
ACHN renal
  TGI: > 50 µM
UACC-62 melanoma
  TGI: 34.4 µM
BT-549 breast
  TGI: 35 µM
OVCAR-3 ovarian
  TGI: > 50 µM
TK-10 renal
  TGI: > 50 µM
M14 melanoma
  TGI: > 50 µM
MALME-3M melanoma
  TGI: > 50 µM
HCC-2998 colon
  TGI: > 50 µM
HOP-62 NSCLC
  TGI: > 50 µM
COLO 205 colon
  TGI: > 50 µM
KM12 colon
  TGI: > 50 µM
SF-268 CNS
  TGI: > 50 µM
IGROV1 ovarian
  TGI: > 50 µM
A549 NSCLC
  TGI: > 50 µM
MDA-MB-435
  TGI: > 50 µM
MDA-MB-231 breast
  TGI: > 50 µM
HS 578T breast
  TGI: > 50 µM
SF-539 CNS
  TGI: > 50 µM
HOP-92 NSCLC
  TGI: 48.1 µM
SR leukemia
  TGI: > 50 µM
RPMI-8226 leukemia
  TGI: 48.4 µM
HCT-15 colon
  TGI: > 50 µM
UO-31 renal
  TGI: > 50 µM
LOX IMVI melanoma
  TGI: > 50 µM
NCI-H226 lung
  TGI: > 50 µM
SW-620 colon
  TGI: > 50 µM
MOLT-4 leukemia
  TGI: > 50 µM
786-0 renal
  TGI: > 50 µM
OVCAR-4 ovarian
  TGI: > 50 µM
NCI-H522 lung
  TGI: > 50 µM
NCI/ADR-RES ovarian
  TGI: 45.6 µM
RXF 393 renal
  TGI: 43 µM
OVCAR-5 ovarian
  TGI: > 50 µM
EKVX NSCLC
  TGI: > 50 µM

## O=C(/C=C/c1ccccc1)c1ccc(NCc2nc3ccccc3[nH]2)cc1
NCI-H23 lung
  TGI: 11 µM
HL-60(TB) leukemia
  TGI: > 22.3 µM
HCT-116 colon
  TGI: 13 µM
M19-MEL melanoma
  TGI: 14.7 µM
XF 498 CNS
  TGI: 20.5 µM
CCRF-CEM leukemia
  TGI: 8.38 µM
SN12C renal
  TGI: 15.4 µM
NCI-H460 lung
  TGI: 12 µM
SK-MEL-2 melanoma
  TGI: 25.5 µM
SK-OV-3 ovarian
  TGI: 18.1 µM
OVCAR-8 ovarian
  TGI: 14.9 µM
SNB-75 CNS
  TGI: 20.9 µM
SF-295 CNS
  TGI: 13.1 µM
A498 renal
  TGI: 18.3 µM
CAKI-1 renal
  TGI: 25.2 µM
UACC-257 melanoma
  TGI: 13.2 µM
U251 CNS
  TGI: 5.17 µM
K-562 leukemia
  TGI: > 26.1 µM
HT29 colon
  TGI: 7.73 µM
LXFL 529 NSCLC
  TGI: 10.8 µM
SK-MEL-28 melanoma
  TGI: 32.6 µM
SNB-19 CNS
  TGI: 15.9 µM
SK-MEL-5 melanoma
  TGI: 14.2 µM
ACHN renal
  TGI: 20.4 µM
UACC-62 melanoma
  TGI: 21.4 µM
OVCAR-3 ovarian
  TGI: 9.57 µM
TK-10 renal
  TGI: 24 µM
M14 melanoma
  TGI: 21.4 µM
MALME-3M melanoma
  TGI: 26.9 µM
HCC-2998 colon
  TGI: 4.2 µM
HOP-62 NSCLC
  TGI: 23.3 µM
DMS 114 small cell lung
  TGI: 12.4 µM
COLO 205 colon
  TGI: 11.1 µM
KM12 colon
  TGI: 4.54 µM
SF-268 CNS
  TGI: 20.9 µM
IGROV1 ovarian
  TGI: 19.8 µM
A549 NSCLC
  TGI: 17.4 µM
SF-539 CNS
  TGI: 5.02 µM
HOP-92 NSCLC
  TGI: 22.5 µM
DLD-1 colon
  TGI: 15.6 µM
SR leukemia
  TGI: > 35.3 µM
HCT-15 colon
  TGI: 15.9 µM
UO-31 renal
  TGI: 20.2 µM
LOX IMVI melanoma
  TGI: 3.76 µM
NCI-H226 lung
  TGI: 16.8 µM
SW-620 colon
  TGI: 8.43 µM
MOLT-4 leukemia
  TGI: 32.3 µM
KM20L2 colon
  TGI: 9.06 µM
786-0 renal
  TGI: 14.4 µM
OVCAR-4 ovarian
  TGI: 22.8 µM
NCI-H522 lung
  TGI: 14.7 µM
DMS 273 small cell lung
  TGI: 16 µM
RXF 393 renal
  TGI: 16.8 µM
OVCAR-5 ovarian
  TGI: 23.2 µM
HOP-18 NSCLC
  TGI: 17.6 µM
EKVX NSCLC
  TGI: 22.5 µM
SNB-78 CNS
  TGI: 20.7 µM

## O=c1c2cc(Br)ccc2nc(CCl)n1-c1ccc(O)c([N+](=O)[O-])c1
NCI-H23 lung
  TGI: 35.8 µM
HL-60(TB) leukemia
  TGI: 49.5 µM
M19-MEL melanoma
  TGI: 36.2 µM
XF 498 CNS
  TGI: 29 µM
CCRF-CEM leukemia
  TGI: 52.9 µM
SN12C renal
  TGI: 36 µM
NCI-H460 lung
  TGI: > 100 µM
SK-MEL-2 melanoma
  TGI: 31.1 µM
SK-OV-3 ovarian
  TGI: 93.5 µM
OVCAR-8 ovarian
  TGI: 42.2 µM
SNB-75 CNS
  TGI: 44 µM
SF-295 CNS
  TGI: 31.5 µM
A498 renal
  TGI: 90.2 µM
CAKI-1 renal
  TGI: 49.3 µM
UACC-257 melanoma
  TGI: 48.2 µM
U251 CNS
  TGI: > 100 µM
K-562 leukemia
  TGI: 48.5 µM
HT29 colon
  TGI: 68.2 µM
LXFL 529 NSCLC
  TGI: 39.9 µM
SK-MEL-28 melanoma
  TGI: 32.3 µM
SK-MEL-5 melanoma
  TGI: 29.8 µM
ACHN renal
  TGI: 79.9 µM
UACC-62 melanoma
  TGI: 72.5 µM
OVCAR-3 ovarian
  TGI: 33 µM
TK-10 renal
  TGI: 32.8 µM
M14 melanoma
  TGI: 50.2 µM
MALME-3M melanoma
  TGI: 33.4 µM
HCC-2998 colon
  TGI: 34.1 µM
HOP-62 NSCLC
  TGI: 36.1 µM
COLO 205 colon
  TGI: 37.8 µM
KM12 colon
  TGI: 39.1 µM
SF-268 CNS
  TGI: 44 µM
IGROV1 ovarian
  TGI: 51.6 µM
A549 NSCLC
  TGI: 52.3 µM
SF-539 CNS
  TGI: 33.5 µM
HOP-92 NSCLC
  TGI: 56.6 µM
DLD-1 colon
  TGI: 33.4 µM
RPMI-8226 leukemia
  TGI: 47.8 µM
HCT-15 colon
  TGI: 41.2 µM
UO-31 renal
  TGI: 29.9 µM
LOX IMVI melanoma
  TGI: 36.2 µM
NCI-H226 lung
  TGI: 29.3 µM
SW-620 colon
  TGI: 35.2 µM
MOLT-4 leukemia
  TGI: 53.5 µM
KM20L2 colon
  TGI: > 100 µM
786-0 renal
  TGI: 31.8 µM
OVCAR-4 ovarian
  TGI: 33.4 µM
NCI-H522 lung
  TGI: 35.7 µM
RXF 393 renal
  TGI: 25.7 µM
OVCAR-5 ovarian
  TGI: > 100 µM
EKVX NSCLC
  TGI: 31.4 µM
SNB-78 CNS
  TGI: 50.3 µM
